We go through one compound from patent publication EP0926242A1, “GLIOTOXIN DERIVATIVES AND ANTICANCER AGENT COMPRISING THE SAME” (priority 1996, dated 1998).

For data set [1], the system named is mouse carcinoma of the colon COLON-26. Put plainly: Evaluation in vivo using mouse carcinoma of the colon COLON-26 (Example 1). Conditions: day 21, CDFI mice. The procedure: CDFI mice (female: 4 weeks old) were bought, and colon-26 subcultured in vivo in the subcutaneous tissue was taken out. The colon-26 was minced in a Petridish, and transplanted into the sulcutaneous tissue of CDFI mice in an amount of 10 mg/mouse by a trucker. The transplanted day was assigned day 0, and the size of the tumor and body weight were measured on day 7 and divided into groups by n=4. The size of tumor was calculated as tumor weight by the following formula. (Tumor Weight (mg) = Tumor Volume (mm)^3 =1/2 × Major Axis (mm) × Minor Axis (mm))^2 [formula]
Administration was carried out from day 7 according to the following schedule. Dose was 0.2 mL/mouse, and injected into abdominal cavity. Acetylgliotoxin was dissolved in dimethyl sulfoxide (DMSO) in a concentration of 100 mg/mL, and adjusted to an object concentration (0.5 mg/kg, 1 mg/kg, 10 mg/kg, 20 mg/kg) by 5% Tween 80 (saline solution). In the evaluation of […], 1 mg/kg, injection was carried out every day for 5 days, in the case of 10 mg/kg, injected twice on day 7 and day 8, and in the case of 20 mg/kg, injected once on day 7.
The anticancer effect was evaluated by the inhibition rate of tumor cell multiplication (IR calculated from the weight of tumor. IR was obtained by the following formula. IR (%) = (1-Tumor Weight of Administration Group/Tumor Weight of Control Group) [formula]

The test system of data set [2] is human carcinoma of the colon HCT-116. As to the kind of experiment: Evaluation in vivo using human carcinoma of the colon HCT-116 (Example 1). The arrangement: species or system Balb/c nu/nu mice. Conditions: for I. R. (%): day 21, Balb/c nu/nu mice. The procedure:
(§1) Balb/c nu/nu mice (female: 5 weeks old) were bought, and HCT- 116 subcultured in vivo in the subcutaneous tissue was taken out. The HCT-116 was minced in a Petridish, and transplanted into the sulcutaneous tissue of […] mice in an amount of 30 mg/mouse by a trucker. The transplanted day was assigned day 0, and the size of the tumor and body weight were measured on day 7 and divided into groups by n=2.
(§2) Acetylgliotoxin was dissolved in dimethyl sulfoxide (DMSO) in a concentration of 100 mg/mL, and adjusted to an object concentration (0.5 mg/kg, 1 mg/kg, 10 mg/kg, 20 mg/kg) by 5 % Tween 80 (saline solution). In the evaluation of 0.5, 1 mg/kg, injection was carried out every day for 5 days, in the case of 10 mg/kg, injected twice on day 7 and day8, and in the case of 20 mg/kg, injected once on day 7.
The anticancer effect was evaluated by the inhibition rate of tumor cell multiplication (IR calculated from the weight of tumor. IR was obtained by the following formula.

The test system of data set [3] is mouse carcinoma of the colon cells colon 26. Put plainly: Anticancer effect in vivo against colon 26 (Example 9 A). To be noted: CDFI mice. The procedure:
• (A) Evaluationin vivo using mouse carcinoma of the colon cells colon 26 CDFI mice (female : 4 weks age) were bought, and colon 26 subcultured in the subcutaneous tissue of the mouse was taken out, and cut into small pieces by a scissors. The cancer cells were transplanted into subcutaneous tisue of CDFI mice by a trucker. The day was assigned 0 day, and the tumor was measured by a slide caliper after 7 days. The volume of the tumor was calculated, and divided into groups (each group : n = 4). The text compound was dissolved in dimethylsulfoxide, and diluted with 5 % Tween 80- saline aqueous solution. […] The administration was carried out after 7 days, after 11 days and after 15 days or after 7 days and after 8 days from the transplantation at a rate of once per one day. 21st day from the transplantation, the volume of tumor was measured and the volume of tumor and the inhibition against tumor multiplication rate (I.R.) were calculated. The volume of tumor was calculated by the following formula. (Tumore Volume [mm)^3 (]= Minor Axis [mm])^2 × Major Axis [mm] × (1/2) [formula] • The inhibition against tumor multiplication rate (I.R.) was calculated by the following formula. I.R. [%] = {1- (Average Tumor Volume of Administration Group / Average Tumor Volume of Control Group)) × 100 [formula] • (B) Evaluation in vivo using human carcinoma of the colon cells HCT-116 Balb/c nu/nu mice (female : 5 weks age) were bought, and HCT-116 (Dainippon Seiyaku) subcultured in the subcutaneous tissue of the mouse was taken out, and cut into small pieces by a scissors. The cancer cells were transplanted into subcutaneous tissue of […] mice by a trucker. The day was assigned 0 day, and the tumor was measured by a slide caliper after 7 days. The volume of the tumor was calculated, and divided into groups (each group : n = 2). The text compound was dissolved in dimethylsulfoxide, and diluted with 5 % Tween 80- saline aqueous solution. […] The administration was carried out after 7 days, after 11 days and after 15 days from the transplantation at a rate of once per one day. 21st day from the transplantation, the volume of tumor was measured and the volume of tumor and the inhibition against tumor multiplication rate (I.R.) were calculated by the above formulas.

Data set [4] in a line: Body weight in the HCT-116 evaluation in vivo (Example 1). The arrangement: species or system Balb/c nu/nu mice. To be noted: day 21, HCT-116 mice, control 17.5 g. The procedure: as §1, §2
Where [5] appears, read: 2.5[mg/kg]×3 (i.p.), 7,11,15th days.
[6] abbreviates: 5 [mg/kg]×3 (i.p.), 7,11,15th days.
[7] abbreviates: 10 [mg/kg]×2 (i.p.), 7,8th days.

Turning to `CC(=O)OC1C=CC=C2CC34SSC(CO)(C(=O)N3C21)N(C)C4=O` (stereo not shown) [acetylgliotoxin], the “I. R. (%)” value came out at 28% in data set [1] (0.5 mg/kg×5 i.p.(d7-11)); 19% in data set [1] (1 mg/kg×5 i.p.(d7-11)); 38% in data set [1] (10 mg/kg×2 i.p.(d7, 8)); 34% in data set [1] (20 mg/kg×1 i.p.(d7)); 41% in data set [2] (0.5 mg/kg×5 i.p.(d7-11)); 65% in data set [2] (1 mg/kg×5 i.p.(d7-11)). The “I. R. (%)” value in data set [2] (10 mg/kg×2 i.p.(d7, 8)) worked out at 65%; in data set [2] (20 mg/kg×1 i.p. (d7)), 28%. For the same compound, the “duration of anticancer effects” value in data set [2] (Test Example (B), 1 mg/kg × 5 and 10 mg/kg × 2) is reported as “continued up to day 42”. Also, the “I.R. (21st day)” value is recorded as 19.6% in data set [3] (setting [5]), 11.8% in data set [3] (setting [6]) and 26.0% in data set [3] (setting [7]). Besides, the I.R.Max came to 44.9% in data set [3] (setting [5]), 56.8% in data set [3] (setting [6]) and 68.8% in data set [3] (setting [7]). Moreover, the “weight” value amounted to 17.1 g in data set [4] (0.5 mg/kg×5 i.p.(d7-11)); 17.8 g in data set [4] (1 mg/kg×5 i.p.(d7-11)); 15.8 g in data set [4] (10 mg/kg×2 i.p.(d7, 8)); 15.9 g in data set [4] (20 mg/kg×1 i.p. (d7)).
